Measurements published in paper PMC12655529, “Serendipitous Hinge Modulation Hypothetically Reprograms Caerin 1.1-LC Antibacterial Mechanism and Gram-Negative Selectivity” (Pharmaceutics, 2025).
≈ marks a conversion by molar mass, not a printed value. Square brackets hold non-standard residues; d marks the D form. Ends that are not written are not given here. Peptide text beside a SMILES is read from it.

Experiments:
E. coli ATCC BAA-2340 = type: cell-based, Escherichia coli
Method: (§1) The antimicrobial activities of the peptides were evaluated by determining their minimal inhibitory concentration (MIC) and minimal bactericidal concentration (MBC) values following reported protocols [20]. The tested microorganisms included seven Gram-negative bacterial strains (Escherichia coli ATCC 8739, E. coli ATCC-BAA 2340, E. coli NCTC 13846, Klebsiella pneumoniae ATCC 43816, K. pneumoniae ATCC BAA-2342, Pseudomonas aeruginosa ATCC 9027, Acinetobacter baumannii ATCC BAA-747), three Gram-positive bacterial strains (Staphylococcus aureus ATCC 6538, Enterococcus faecalis NCTC 12697, MRSA NCTC 12493, and the fungal strain Candida albicans ATCC 10231. For the assay, each bacterial strain was cultured overnight at 37 °C in 100 mL of medium in a flask. The cultures were then subcultured to reach the logarithmic growth phase and diluted to 5 × 10^5 CFU/mL. Peptide samples were serially diluted two-fold in microplates, with concentrations ranging from 128 μM to 1 μM. The diluted bacterial suspensions were mixed with the peptide solutions and incubated overnight at 37 °C. The MIC values were determined by measuring the absorbance of each well using a Synergy HT plate reader (Agilent, Cheshire, UK). For MBC determination, aliquots from wells showing no visible growth were inoculated onto agar plates to assess bacterial viability. Each experiment was repeated independently three times and conducted in three independent replicates.

Gram-negative bacteria = experiment: Geometric mean MIC and therapeutic index, Gram-negative; type: cell-based; settings: geometric mean of MICs
[1] = tested on: Escherichia coli ATCC 8739; type: cell-based; settings: ATCC 8739
Method: as §1

E. coli (ATCC-BAA 2340) = type: cell-based, Escherichia coli; settings: ATCC-BAA 2340
Method: The peptide sensitivity was determined in different salt- and serum-containing environments. Bacterial strains were prepared following the MIC detection protocol described previously. To evaluate peptide sensitivity under physiological conditions, various concentrations of salt ions (150 mM NaCl, 4.5 mM KCl, 2 mM CaCl2, 1 mM MgCl2, 8 µM ZnCl2, 6 µM NH4Cl, or 4 µM FeCl3) and serum (10% FBS) were prepared in McCartney bottles prior to the addition of bacterial suspensions. The subcultured bacterial suspensions were then introduced to these modified media conditions. For MIC determination, the treated bacterial suspensions were diluted and dispensed into 96-well plates containing peptide solutions at graded concentrations. This assay allowed for the detection of potential alterations in MIC values, serving as an indicator of peptide sensitivity under different physiological conditions. All experiments were independently repeated three times, each with three replicates.

MRSA NCTC 12493 = type: cell-based, Staphylococcus aureus
Method: as §1

[2] = tested on: Klebsiella pneumoniae ATCC 43816; type: cell-based; settings: ATCC 43816
E. coli NCTC 13846 = type: cell-based, Escherichia coli
Method: as §1

[3] = tested on: Enterococcus faecalis NCTC 12697; type: cell-based; settings: NCTC 12697
[4] = tested on: Acinetobacter baumannii ATCC BAA-747; type: cell-based; settings: ATCC BAA-747
Method: as §1

[5] = tested on: K. pneumoniae ATCC BAA-2342; type: cell-based, Klebsiella pneumoniae
[6] = tested on: Staphylococcus aureus ATCC 6538; type: cell-based; settings: ATCC 6538
Gram-positive bacteria = experiment: Geometric mean MIC and therapeutic index, Gram-positive; type: cell-based; settings: geometric mean of MICs
horse red blood cells = experiment: Haemolysis assay; type: cell-based; settings: concentration inducing 10% haemolysis of horse erythrocytes; 4% (v/v) in PBS, 2 h, 37 °C, absorbance 570 nm; no haemolysis at maximum testing concentration (128 μM) recorded as 256 μM
Method: The peptide cytotoxicity against mammalian erythrocytes was evaluated by haemolysis assay on horse red blood cells (E&O Laboratories Ltd., Falkirk, UK). Fresh horse blood was washed three times with PBS and resuspended to a final concentration of 4% (v/v) in PBS. The diluted blood suspension was then mixed with peptide solutions at varying concentrations and incubated for 2 h at 37 °C. Red blood cell suspensions treated with 0.1% Triton X-100 and PBS were used as controls. The Triton X-100-treated suspension was the positive control (for 100% haemolysis), while the PBS-treated suspension was the blank control. Following incubation, the mixtures were centrifuged at 1000× g for 10 min to separate erythrocytes from the supernatant. The absorbance of the supernatants was detected at 570 nm. The percentage haemolysis was calculated by following the equationPercentage Haemolysis = (AbsSample − AbsBlank)/(AbsPositive − AbsBlank) × 100%

[7] = tested on: Pseudomonas aeruginosa ATCC 9027; type: cell-based

Compound	MBC, E. coli (ATCC BAA-2340) (E. coli ATCC BAA-2340) [µM]	MIC, E. coli (ATCC BAA-2340) (E. coli ATCC BAA-2340) [µM]	GM MIC Gram-Negative (Gram-negative bacteria) [µM]	MBC, E. coli (ATCC 8739) [1] [µM]	MIC, E. coli (ATCC 8739) [1] [µM]	MBC, MRSA (NCTC 12493) (MRSA NCTC 12493) [µM]	MIC, MRSA (NCTC 12493) (MRSA NCTC 12493) [µM]	MBC, K. pneumoniae (ATCC 43816) [2] [µM]	MIC, K. pneumoniae (ATCC 43816) [2] [µM]	MBC, E. coli (NCTC 13846) (E. coli NCTC 13846) [µM]	MIC, E. coli (NCTC 13846) (E. coli NCTC 13846) [µM]	MBC, E. faecalis (NCTC 12697) [3] [µM]	MIC, E. faecalis (NCTC 12697) [3] [µM]	MBC, A. baumannii (ATCC BAA-747) [4] [µM]	MIC, A. baumannii (ATCC BAA-747) [4] [µM]	MBC, K. pneumoniae (ATCC BAA-2342) [5] [µM]	MIC, K. pneumoniae (ATCC BAA-2342) [5] [µM]	MBC, S. aureus (ATCC 6538) [6] [µM]	MIC, S. aureus (ATCC 6538) [6] [µM]	GM MIC Gram-Positive (Gram-positive bacteria) [µM]	further results
GLLSVLGSLKKIVPHVVPWIAKKL-NH2 [Caerin 1.1-LC 11K.12K.19W]	2	2	4	2	2	2	2	4	4	4	2	32	16	4	4	4	4	2	2	2.97	MIC, Ca^2+ (E. coli (ATCC-BAA 2340)): 8 µM; MIC, Control (E. coli (ATCC-BAA 2340)): 4 µM; MIC, FBS (E. coli (ATCC-BAA 2340)): 8 µM; MIC, Fe^3+ (E. coli (ATCC-BAA 2340)): 4 µM; MIC, K^+ (E. coli (ATCC-BAA 2340)): 4 µM; MIC, Mg^2+ (E. coli (ATCC-BAA 2340)): 4 µM; MIC, NH4^+ (E. coli (ATCC-BAA 2340)): 4 µM; MIC, Na^+ (E. coli (ATCC-BAA 2340)): 4 µM; HC10 (horse red blood cells): 10.5 µM; MBC, P. aeruginosa (ATCC 9027) [7]: 4/4 µM; MIC, P. aeruginosa (ATCC 9027) [7]: 4/4 µM
CC[C@H](C)[C@H](NC(=O)[C@H](CCCCN)NC(=O)[C@@H]1CCCN1C(=O)[C@@H](CC(C)C)NC(=O)[C@H](C)NC(=O)[C@H](CCCCN)NC(=O)[C@@H]1CCCN1C(=O)[C@@H](NC(=O)[C@@H](NC(=O)[C@H](CC(C)C)NC(=O)[C@H](CCCCN)NC(=O)[C@H](CC(C)C)NC(=O)[C@H](CO)NC(=O)CNC(=O)[C@H](CC(C)C)NC(=O)[C@@H](NC(=O)[C@H](CO)NC(=O)[C@H](CC(C)C)NC(=O)[C@H](CC(C)C)NC(=O)CN)C(C)C)[C@@H](C)CC)C(C)C)C(=O)N[C@@H](C)C(=O)N[C@@H](CCC(=O)O)C(=O)N[C@@H](CCCCN)C(=O)N[C@@H](CC(C)C)C(N)=O [Caerin 1.1-LC PKAL(D)P] (H-GLLSVLGSLKLIVPKA[dL]PKIAEKL-NH2; N-terminus assumed)	2 (≈ 5 µg/mL)	2 (≈ 5 µg/mL)	4.87	2 (≈ 5 µg/mL)	2 (≈ 5 µg/mL)	8 (≈ 20 µg/mL)	4 (≈ 10 µg/mL)	4 (≈ 10 µg/mL)	4 (≈ 10 µg/mL)	8 (≈ 20 µg/mL)	8 (≈ 20 µg/mL)	>128	>128	32 (≈ 80 µg/mL)	32 (≈ 80 µg/mL)	4 (≈ 10 µg/mL)	4 (≈ 10 µg/mL)	32 (≈ 80 µg/mL)	32 (≈ 80 µg/mL)	64	MIC, Ca^2+ (E. coli (ATCC-BAA 2340)): 128 µM (≈ 320 µg/mL); MIC, Control (E. coli (ATCC-BAA 2340)): 2 µM (≈ 5 µg/mL); MIC, FBS (E. coli (ATCC-BAA 2340)): 16 µM (≈ 40 µg/mL); MIC, Fe^3+ (E. coli (ATCC-BAA 2340)): 2 µM (≈ 5 µg/mL); MIC, K^+ (E. coli (ATCC-BAA 2340)): 2 µM (≈ 5 µg/mL); MIC, Mg^2+ (E. coli (ATCC-BAA 2340)): 16 µM (≈ 40 µg/mL); MIC, NH4^+ (E. coli (ATCC-BAA 2340)): 2 µM (≈ 5 µg/mL); MIC, Na^+ (E. coli (ATCC-BAA 2340)): 4 µM (≈ 10 µg/mL); HC10 (horse red blood cells): 43.4 µM; MBC, P. aeruginosa (ATCC 9027) [7]: 4/4 µM; MIC, P. aeruginosa (ATCC 9027) [7]: 4/4 µM
GLLSVLGSLKKIVPKAVPKIAEKL-NH2 [Caerin 1.1-LC 11K.19K.PKAVP]	8	8	26.08	8	8	64	64	64	64	2	2	>128	>128	128	128	>128	>128	>128	>128	161.5	HC10 (horse red blood cells): 256 µM; MBC, P. aeruginosa (ATCC 9027) [7]: 64 µM; MIC, P. aeruginosa (ATCC 9027) [7]: 32 µM
